The results in this text go back to patent US9067911B2, “Piperidine derivatives” (Hoffmann-La Roche Inc., priority 2009, dated 2015).

The experiment deals with T1, mGlyT-1b (Mus musculus, UniProt P28571).
T1 construct: host or cells: Flp-in-CHO
T1 sequence (P28571 1-651 isoform P28571-2): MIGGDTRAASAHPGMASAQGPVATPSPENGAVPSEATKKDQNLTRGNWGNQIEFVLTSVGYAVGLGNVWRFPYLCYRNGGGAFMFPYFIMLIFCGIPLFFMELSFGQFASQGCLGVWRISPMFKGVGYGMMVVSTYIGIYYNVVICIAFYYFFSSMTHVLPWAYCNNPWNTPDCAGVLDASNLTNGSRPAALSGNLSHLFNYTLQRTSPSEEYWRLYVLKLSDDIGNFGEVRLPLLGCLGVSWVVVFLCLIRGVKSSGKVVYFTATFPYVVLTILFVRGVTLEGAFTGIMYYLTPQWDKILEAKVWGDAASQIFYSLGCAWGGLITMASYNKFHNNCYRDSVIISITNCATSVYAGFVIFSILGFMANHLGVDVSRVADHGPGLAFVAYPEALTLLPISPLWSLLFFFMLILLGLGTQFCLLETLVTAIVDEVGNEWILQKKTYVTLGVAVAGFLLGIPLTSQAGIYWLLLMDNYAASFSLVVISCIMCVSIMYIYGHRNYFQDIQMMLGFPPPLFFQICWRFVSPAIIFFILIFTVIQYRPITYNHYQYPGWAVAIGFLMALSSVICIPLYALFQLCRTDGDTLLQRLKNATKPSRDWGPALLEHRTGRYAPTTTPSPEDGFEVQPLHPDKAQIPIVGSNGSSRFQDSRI
Put plainly: Glycine uptake inhibition assay (mGlyT-1b). Particulars: [3H]-glycine uptake, Flp-in-CHO cells stably transfected with mGlyT1b cDNA, 20 min preincubation at 22° C. It counts as cell-based. Here is the method: Nutrient mixture F-12 (Gibco Life-technologies), fetal bovine serum (FBS) 5%, (Gibco life technologies), Penicillin/Streptomycin 1% (Gibco life technologies), Hygromycin 0.6 mg/ml (Gibco life technologies), Glutamine 1 mM Gibco life technologies)
150 mM NaCl, 10 mM Hepes-Tris, pH 7.4, 1 mM CaCl2, 2.5 mM KCl, 2.5 mM MgSO4, 10 mM (+) D-glucose.
Flp-in™-CHO (Invitrogen Cat n° R758-07) cells stably transfected with mGlyT1b cDNA.
Glycine Uptake Inhibition Assay (mGlyT-1b)
On day 1 mammalian cells, (Flp-in™-CHO), transfected with mGlyT-1b cDNA, were plated at the density of 40,000 cells/well in complete F-12 medium, without hygromycin in 96-well culture plates. On day 2, the medium was aspirated and the cells were washed twice with uptake buffer (UB). The cells were then incubated for 20 min at 22° C. with either (i) no potential competitor, (ii) 10 mM non-radioactive glycine, (iii) a concentration of a potential inhibitor. A range of concentrations of the potential inhibitor was used to generate data for calculating the concentration of inhibitor resulting in 50% of the effect (e.g. IC50, the concentration of the competitor inhibiting glycine uptake of 50%). A solution was then immediately added containing [^3H]-glycine 60 nM (11-16 Ci/mmol) and 25 μM non-radioactive glycine. The plates were incubated with gentle shaking and the reaction was stopped by aspiration of the mixture and washing (three times) with ice-cold UB. The cells were lysed with scintillation liquid, shaken 3 hours and the radioactivity in the cells was counted using a scintillation counter.

SMILES strings stand for the structures. Where a name gives a salt, the structure may show the parent alone.

As to `COc1cc(C(F)(F)F)cc(SC)c1C(=O)NC1(c2cc(F)ccc2F)CCCN(C)C1` (single isomer, unassigned) [Example 113, N-[(R or S)-3-(2,5-Difluoro-phenyl)-1-methyl-piperidin-3-yl]-2-methoxy-6-methylsulfanyl-4-trifluoromethyl-benzamide], the concentration for half-maximal inhibition (IC50) came out at 56.4 nM. This counts as double-digit nanomolar.

As for `CSc1cc(C(F)(F)F)ccc1C(=O)NC1(c2ccccc2)CCCN(C)C1` (racemic) [Example 19, rac-N-(1-Methyl-3-phenyl-piperidin-3-yl)-2-methylsulfanyl-4-trifluoromethyl-benzamide], inhibition was half-maximal at 67.2 nM (IC50). This IC50 and that of the compound before are within 1.5-fold of each other.

In turn, `COc1cc(C(F)(F)F)cc(SC)c1C(=O)NC1(c2cccc(C)c2)CCCN(C)C1` (racemic) [Example 96, rac-2-Methoxy-6-methylsulfanyl-N-(1-methyl-3-m-tolyl-piperidin-3-yl)-4-trifluoromethyl-benzamide] came in with a concentration for half-maximal inhibition (IC50) of 68.2 nM.

As to `CCc1cc(C(F)(F)F)ccc1C(=O)NC1(c2cccnc2)CCCN(C)C1` (racemic) [Example 74, rac-2-Ethyl-N-(1-methyl-1,4,5,6-tetrahydro-2H-[3,3′]bipyridinyl-3-yl)-4-trifluoromethyl-benzamide hydrochloride], 123 nM corresponded to half-maximal inhibition (IC50). Compared with the last compound, the IC50 is about 1.8-fold higher.

As for `CC(C)c1cc(C(F)(F)F)ccc1C(=O)NC1(c2ccccc2)CCCN(C)C1` (racemic) [Example 70, rac-2-Isopropyl-N-(1-methyl-3-phenyl-piperidin-3-yl)-4-trifluoromethyl-benzamide hydrochloride], the half-inhibitory concentration (IC50) stood at 197 nM.

Consider `COc1cc(C(F)(F)F)cc(SC)c1C(=O)N[C@]1(c2ccccc2)CC[C@H](C)N(C)C1` (single isomer, unassigned) [Example 117, N-((3S,6S) or (3R,6R)-1,6-Dimethyl-3-phenyl-piperidin-3-yl)-2-methoxy-6-methylsulfanyl-4-trifluoromethyl-benzamide], for which the IC50 was 32.4 nM.

In turn, `COc1cc(C(F)(F)F)cc(SC)c1C(=O)NC1(c2ccccc2F)CCCN(C)C1` (racemic) [Example 68, rac-N-[3-(2-Fluoro-phenyl)-1-methyl-piperidin-3-yl]-2-methoxy-6-methylsulfanyl-4-trifluoromethyl-benzamide] had an IC50 of 175 nM.

`COc1cc(C(F)(F)F)cc(SC)c1C(=O)NC1(c2ccc(F)c(Cl)c2)CCCN(C)C1` (racemic) [Example 94, rac-N-[3-(3-Chloro-4-fluoro-phenyl)-1-methyl-piperidin-3-yl]-2-methoxy-6-methylsulfanyl-4-trifluoromethyl-benzamide]: the IC50 was found to be 59.6 nM.

With `COc1cc(C(F)(F)F)cc(C(F)(F)F)c1C(=O)NC1(c2ccc(F)cc2)CCCN(C)C1` (racemic) [Example 26, rac-N-[3-(4-Fluoro-phenyl)-1-methyl-piperidin-3-yl]-2-methoxy-4,6-bis-trifluoromethyl-benzamide], the midpoint of inhibition, the IC50, lay at 59.3 nM. This IC50 and that of the compound before are within 1.5-fold of each other.

Consider `COc1cc(C(F)(F)F)cc(SC)c1C(=O)NC1(c2cc(F)cc(F)c2)CCCN(C)C1` (racemic) [Example 98, rac-N-[3-(3,5-Difluoro-phenyl)-1-methyl-piperidin-3-yl]-2-methoxy-6-methylsulfanyl-4-trifluoromethyl-benzamide], for which the IC50 stood at 62.2 nM.

Consider `COc1cc(C(F)(F)F)cc(OC)c1C(=O)NC1(c2ccccc2)CCCN(C)C1` (racemic) [Example 80, rac-2,6-Dimethoxy-N-(1-methyl-3-phenyl-piperidin-3-yl)-4-trifluoromethyl-benzamide], for which the IC50 is 176 nM.

`COc1cc(C(F)(F)F)cc(SC)c1C(=O)N[C@@]1(c2ccccc2)C[C@H](C)CN(C)C1` (mixture of isomers) [Example 85, N-((3R,5SR)-1,5-Dimethyl-3-phenyl-piperidin-3-yl)-2-methoxy-6-methylsulfanyl-4-trifluoromethyl-benzamide hydrochloride] displayed an IC50 of 31.3 nM. This IC50 lies about 5.6-fold lower than the previous one.

Turning to `COc1cc(C(F)(F)F)cc(SC)c1C(=O)NC1(c2ccc(F)cc2)CCCN(C)C1` (racemic) [Example 27, rac-N-[3-(4-Fluoro-phenyl)-1-methyl-piperidin-3-yl]-2-methoxy-6-methylsulfanyl-4-trifluoromethyl-benzamide], the midpoint of inhibition, the IC50, lay at 26.2 nM. The IC50 values of the last two compounds are within 1.5-fold of each other.

As for `COc1cc(C(F)(F)F)cc(SC)c1C(=O)NC1(c2cccc(Br)c2)CCCN(C)C1` (racemic) [Example 87, rac-N-[3-(3-Bromo-phenyl)-1-methyl-piperidin-3-yl]-2-methoxy-6-methylsulfanyl-4-trifluoromethyl-benzamide hydrochloride], the IC50 was found to be 39.6 nM.

As for `COc1cc(C(F)(F)F)cc(SC)c1C(=O)N[C@@]1(c2ccccc2)C[C@H](O)CN(C)C1` (racemic) [Example 107, N-((3R,5S) or (3S,5R)-5-Hydroxy-1-methyl-3-phenyl-piperidin-3-yl)-2-methoxy-6-methylsulfanyl-4-trifluoromethyl-benzamide hydrochloride], 31.2 nM corresponded to half-maximal inhibition (IC50).

Compound `COc1cc(C(F)(F)F)cc(SC)c1C(=O)NC1(c2ccccc2)CCCN(C(C)(C)C)C1` (racemic) [Example 104, rac-N-(1-tert-Butyl-3-phenyl-piperidin-3-yl)-2-methoxy-6-methylsulfanyl-4-trifluoromethyl-benzamide] registered an IC50 of 173 nM.

The compound `CN1CCCC(NC(=O)c2ccc(C(F)(F)F)cc2C2CC2)(c2ccccc2)C1` (racemic) [Example 13, rac-2-Cyclopropyl-N-(1-methyl-3-phenyl-piperidin-3-yl)-4-trifluoromethyl-benzamide] registered an IC50 of 13 nM.

Consider `COc1cc(C(F)(F)F)cc(SC)c1C(=O)NC1(c2cc(F)ccc2F)CCCN(C)C1` (racemic) [Example 69, rac-N-[3-(2,5-Difluoro-phenyl)-1-methyl-piperidin-3-yl]-2-methoxy-6-methylsulfanyl-4-trifluoromethyl-benzamide], for which the IC50 is 117 nM.

As for `COc1cc(C(F)(F)F)cc(SC)c1C(=O)NC1(c2cccnc2)CCCN(C)C1` (racemic) [Example 73, rac-2-Methoxy-6-methylsulfanyl-N-(1-methyl-1,4,5,6-tetrahydro-2H-[3,3′]bipyridinyl-3-yl)-4-trifluoromethyl-benzamide], the half-maximal inhibitory concentration (IC50) is 54.4 nM. This IC50 is about 2.2-fold lower than that of the compound before.

In turn, `COc1ccc(C2(NC(=O)c3c(OC)cc(C(F)(F)F)cc3SC)CCCN(C)C2)cc1` (racemic) [Example 46, rac-2-Methoxy-N-[3-(4-methoxy-phenyl)-1-methyl-piperidin-3-yl]-6-methylsulfanyl-4-trifluoromethyl-benzamide] registered an IC50 of 169 nM.

`COc1cc(C(F)(F)F)cc(SC)c1C(=O)NC1(c2cccc(F)c2)CCCN(C)C1` (racemic) [Example 93, rac-N-[3-(3-Fluoro-phenyl)-1-methyl-piperidin-3-yl]-2-methoxy-6-methylsulfanyl-4-trifluoromethyl-benzamide formic acid] showed an IC50 of 47.9 nM. This IC50 lies about 3.5-fold lower than the previous one.

Compound `COc1cc(C(F)(F)F)cc(SC)c1C(=O)N[C@@]1(c2ccccc2)CC[C@H](C)N(C)C1` (single isomer, unassigned) [Example 120, N-((3R,6S) or (3S,6R)-1,6-Dimethyl-3-phenyl-piperidin-3-yl)-2-methoxy-6-methylsulfanyl-4-trifluoromethyl-benzamide] had a half-maximal inhibitory concentration (IC50) of 12.7 nM.

In turn, `CCc1c(C(=O)NC2(c3ccccc3)CCCN(C)C2)ccc(C(F)(F)F)c1C` (racemic) [Example 103, rac-2-Ethyl-3-methyl-N-(1-methyl-3-phenyl-piperidin-3-yl)-4-trifluoromethyl-benzamide formic acid] had an IC50 of 77.3 nM.

The compound `COc1cc(C(F)(F)F)cc(SC)c1C(=O)NC1(c2ccc(F)c(F)c2)CCCN(C)C1` (racemic) [Example 95, rac-N-[3-(3,4-Difluoro-phenyl)-1-methyl-piperidin-3-yl]-2-methoxy-6-methylsulfanyl-4-trifluoromethyl-benzamide] yielded a half-maximal inhibitory concentration (IC50) of 51.5 nM.

Regarding `CN1CCC[C@@](NC(=O)c2ccc(C(F)(F)F)cc2C2CC2)(c2ccccc2)C1` (stereo in doubt) [Example 57, 2-Cyclopropyl-N-((R)-1-methyl-3-phenyl-piperidin-3-yl)-4-trifluoromethyl-benzamide hydrochloride], half-maximal inhibition (IC50) required 22.7 nM.
